Key:
[1] = test system: CAKI-1; experiment: Antiproliferative activity against human CAKI-1 cells after 3 days by fluorescence assay; assay type: functional; conditions: CAKI-1, 72 h
[2] = Antiproliferative activity against human RXF393 cells after 3 days by fluorescence assay; assay type: functional; conditions: RXF 393, 72 h
[3] = test system: SN12C; experiment: Antiproliferative activity against human SN12C cells after 3 days by fluorescence assay; assay type: functional; conditions: 72 h
[4] = test system: TK-10; experiment: Antiproliferative activity against human TK10 cells after 3 days by fluorescence assay; assay type: functional; conditions: TK-10, 72 h
[5] = Antiproliferative activity against human UO31 cells after 3 days by fluorescence assay; assay type: functional; conditions: UO-31, 72 h
[6] = Antiproliferative activity against human PC3 cells after 3 days by fluorescence assay; assay type: functional; conditions: PC-3, 72 h
[7] = test system: DU-145; experiment: (§1) Antiproliferative activity against human DU145 cells after 3 days by fluorescence assay; assay type: functional; conditions: DU-145, 72 h
[8] = test system: MCF7; experiment: Antiproliferative activity against human MCF7 cells after 3 days by fluorescence assay; assay type: functional; conditions: MCF7, 72 h
[9] = test system: MDA-MB-231; experiment: Antiproliferative activity against human MDA-MB-231 cells after 3 days by fluorescence assay; assay type: functional; conditions: MDA-MB-231, 72 h
[10] = Antiproliferative activity against human Hs 578T cells after 3 days by fluorescence assay; assay type: functional; conditions: 72 h
[11] = Antiproliferative activity against human BT549 cells after 3 days by fluorescence assay; assay type: functional; conditions: BT-549, 72 h
[12] = test system: T47D; experiment: Antiproliferative activity against human T47D cells after 3 days by fluorescence assay; assay type: functional; conditions: 72 h
[13] = test system: MDA-MB-468; experiment: Antiproliferative activity against human MDA-MB-468 cells after 3 days by fluorescence assay; assay type: functional; conditions: MDA-MB-468, 72 h
[14] = molecular target: Tubulin; experiment: Displacement of [3H]-colchicine from tubulin (unknown origin) after 10 mins by turbidimetrically; assay type: protein-complex assay, Homo sapiens
[15] = molecular target: T1, Tubulin (Homo sapiens) (UniProt P68371+Q9H4B7+P0DPH7+P68366+Q13509+Q71U36+P04350+Q3ZCM7+P07437+P68363+Q9BQE3+Q6PEY2+Q13885+Q9BVA1+Q9BUF5); experiment: Displacement of [3H]-colchicine from tubulin (unknown origin) at 1 uM after 10 mins by turbidimetrically relative to control; assay type: protein-complex assay
[16] = molecular target: T1, Tubulin (Homo sapiens); experiment: Displacement of [3H]-colchicine from tubulin (unknown origin) at 5 uM after 10 mins by turbidimetrically relative to control; assay type: protein-complex assay
[17] = molecular target: T1, Tubulin (Homo sapiens); experiment: Displacement of [3H]-colchicine from tubulin (unknown origin) at 50 uM after 10 mins by turbidimetrically relative to control; assay type: protein-complex assay
[18] = test system: DU-145; experiment: as §1; assay type: functional; conditions: DU-145, 72 h; remark: listed apart in the source
[19] = test system: CCRF-CEM; experiment: Antiproliferative activity against human CCRF-CEM cells after 3 days by fluorescence assay; assay type: functional; conditions: 72 h
[20] = test system: HL-60(TB); experiment: Antiproliferative activity against human HL-60(TB) cells after 3 days by fluorescence assay; assay type: functional; conditions: HL-60, 72 h
[21] = test system: K562; experiment: Antiproliferative activity against human K562 cells after 3 days by fluorescence assay; assay type: functional; conditions: K562, 72 h
[22] = Antiproliferative activity against human MOLT4 cells after 3 days by fluorescence assay; assay type: functional; conditions: MOLT-4, 72 h
[23] = Antiproliferative activity against human RPMI8226 cells after 3 days by fluorescence assay; assay type: functional; conditions: RPMI-8226, 72 h
[24] = test system: SR; experiment: Antiproliferative activity against human SR cells after 3 days by fluorescence assay; assay type: functional; conditions: 72 h
[25] = test system: A549; experiment: Antiproliferative activity against human A549 cells after 3 days by fluorescence assay; assay type: functional; conditions: A549, 72 h
[26] = Antiproliferative activity against human EKVX cells after 3 days by fluorescence assay; assay type: functional; conditions: 72 h
[27] = test system: HOP-62; experiment: Antiproliferative activity against human HOP62 cells after 3 days by fluorescence assay; assay type: functional; conditions: HOP-62, 72 h
[28] = Antiproliferative activity against human HOP92 cells after 3 days by fluorescence assay; assay type: functional; conditions: HOP-92, 72 h
[29] = test system: NCI-H226; experiment: Antiproliferative activity against human NCI-H226 cells after 3 days by fluorescence assay; assay type: functional; conditions: NCI-H226, 72 h
[30] = test system: NCI-H23; experiment: Antiproliferative activity against human NCI-H23 cells after 3 days by fluorescence assay; assay type: functional; conditions: NCI-H23, 72 h
[31] = test system: NCI-H322M; experiment: Antiproliferative activity against human NCI-H322M cells after 3 days by fluorescence assay; assay type: functional; conditions: 72 h
[32] = test system: NCI-H460; experiment: Antiproliferative activity against human NCI-H460 cells after 3 days by fluorescence assay; assay type: functional; conditions: NCI-H460, 72 h
[33] = test system: NCI-H522; experiment: Antiproliferative activity against human NCI-H522 cells after 3 days by fluorescence assay; assay type: functional; conditions: NCI-H522, 72 h
[34] = Antiproliferative activity against human COLO205 cells after 3 days by fluorescence assay; assay type: functional; conditions: COLO 205, 72 h
[35] = Antiproliferative activity against human HCC2998 cells after 3 days by fluorescence assay; assay type: functional; conditions: HCC 2998, 72 h
[36] = Antiproliferative activity against human HCT116 cells after 3 days by fluorescence assay; assay type: functional; conditions: HCT-116, 72 h
[37] = Antiproliferative activity against human HCT15 cells after 3 days by fluorescence assay; assay type: functional; conditions: HCT-15, 72 h
[38] = test system: HT-29; experiment: Antiproliferative activity against human HT-29 cells after 3 days by fluorescence assay; assay type: functional; conditions: HT-29, 72 h
[39] = test system: KM12; experiment: Antiproliferative activity against human KM12 cells after 3 days by fluorescence assay; assay type: functional; conditions: KM12, 72 h
[40] = test system: SW-620; experiment: Antiproliferative activity against human SW620 cells after 3 days by fluorescence assay; assay type: functional; conditions: SW-620, 72 h
[41] = test system: SF-268; experiment: Antiproliferative activity against human SF268 cells after 3 days by fluorescence assay; assay type: functional; conditions: SF-268, 72 h
[42] = Antiproliferative activity against human SF295 cells after 3 days by fluorescence assay; assay type: functional; conditions: SF-295, 72 h
[43] = Antiproliferative activity against human SF539 cells after 3 days by fluorescence assay; assay type: functional; conditions: SF-539, 72 h
[44] = test system: SNB-19; experiment: Antiproliferative activity against human SNB19 cells after 3 days by fluorescence assay; assay type: functional; conditions: SNB-19, 72 h
[45] = test system: SNB-75; experiment: Antiproliferative activity against human SNB75 cells after 3 days by fluorescence assay; assay type: functional; conditions: SNB-75, 72 h
[46] = test system: U-251; experiment: Antiproliferative activity against human U251 cells after 3 days by fluorescence assay; assay type: functional; conditions: U-251, 72 h
[47] = Antiproliferative activity against human LOXIMVI cells after 3 days by fluorescence assay; assay type: functional; conditions: LOX IMVI, 72 h
[48] = test system: Malme-3M; experiment: Antiproliferative activity against human MALME-3M cells after 3 days by fluorescence assay; assay type: functional; conditions: 72 h
[49] = test system: M14; experiment: Antiproliferative activity against human M14 cells after 3 days by fluorescence assay; assay type: functional; conditions: M14, 72 h
[50] = test system: MDA-MB-435; experiment: Antiproliferative activity against human MDA-MB-435 cells after 3 days by fluorescence assay; assay type: functional; conditions: MDA-MB-435, 72 h
[51] = test system: SK-MEL-2; experiment: Antiproliferative activity against human SK-MEL-2 cells after 3 days by fluorescence assay; assay type: functional; conditions: SK-MEL-2, 72 h
[52] = test system: SK-MEL-28; experiment: Antiproliferative activity against human SK-MEL-28 cells after 3 days by fluorescence assay; assay type: functional; conditions: SK-MEL-28, 72 h
[53] = test system: SK-MEL-5; experiment: Antiproliferative activity against human SK-MEL-5 cells after 3 days by fluorescence assay; assay type: functional; conditions: SK-MEL-5, 72 h
[54] = Antiproliferative activity against human UACC257 cells after 3 days by fluorescence assay; assay type: functional; conditions: UACC-257, 72 h
[55] = Antiproliferative activity against human UACC62 cells after 3 days by fluorescence assay; assay type: functional; conditions: UACC-62, 72 h
[56] = test system: IGROV-1; experiment: Antiproliferative activity against human IGROV1 cells after 3 days by fluorescence assay; assay type: functional; conditions: IGROV-1, 72 h
[57] = Antiproliferative activity against human OVCAR3 cells after 3 days by fluorescence assay; assay type: functional; conditions: OVCAR-3, 72 h
[58] = Antiproliferative activity against human OVCAR4 cells after 3 days by fluorescence assay; assay type: functional; conditions: OVCAR-4, 72 h
[59] = Antiproliferative activity against human OVCAR5 cells after 3 days by fluorescence assay; assay type: functional; conditions: OVCAR-5, 72 h
[60] = Antiproliferative activity against human OVCAR8 cells after 3 days by fluorescence assay; assay type: functional; conditions: OVCAR-8, 72 h
[61] = Antiproliferative activity against human NCI-ADR-RES cells after 3 days by fluorescence assay; assay type: functional; conditions: 72 h
[62] = Antiproliferative activity against human SKOV3 cells after 3 days by fluorescence assay; assay type: functional; conditions: SK-OV-3, 72 h
[63] = test system: 786-0; experiment: Antiproliferative activity against human 786-0 cells after 3 days by fluorescence assay; assay type: functional; conditions: 786-0, 72 h
[64] = test system: A498; experiment: Antiproliferative activity against human A498 cells after 3 days by fluorescence assay; assay type: functional; conditions: A498, 72 h
[65] = test system: ACHN; experiment: Antiproliferative activity against human ACHN cells after 3 days by fluorescence assay; assay type: functional; conditions: 72 h

With `COc1cccc(NC(=O)N2CCC(c3nc(-c4ccc(C)cc4)no3)CC2)c1` the GI50 [1] was 5.75 µM, the GI50 [2] was 4.07 µM and the GI50 [3] was 11 µM. For the same compound, the GI50 [4] was 9.55 µM, the GI50 [5] was 6.46 µM and the GI50 [6] was 4.37 µM. For the same compound, the GI50 [7] was 3.63 µM, the GI50 [8] was 3.24 µM and the GI50 [9] was 18.2 µM. The GI50 [10] was 5.5 µM, the GI50 [11] was 13.8 µM and the GI50 [12] was 5.5 µM. The GI50 [13] was 2.45 µM, the IC50 [14] was 3 µM and the inhibition [15] was 5.7%. The inhibition [16] was 8.2%, the inhibition [17] was 19% and the GI50 [18] was 4.5 µM. It also gave a GI50 [19] of 3.55 µM, a GI50 [20] of 0.603 µM and a GI50 [21] of 0.355 µM. It also gave a GI50 [22] of 5.5 µM, a GI50 [23] of 3.31 µM and a GI50 [24] of 0.417 µM. For the same compound, the GI50 [25] was 5.13 µM, the GI50 [26] was 6.76 µM and the GI50 [27] was 4.68 µM. For the same compound, the GI50 [28] was 3.31 µM, the GI50 [29] was 9.12 µM and the GI50 [30] was 6.03 µM. For the same compound, the GI50 [31] was 11.7 µM, the GI50 [32] was 3.47 µM and the GI50 [33] was 4.07 µM. It also gave a GI50 [34] of 3.8 µM, a GI50 [35] of 5.01 µM and a GI50 [36] of 4.79 µM. For the same compound, the GI50 [37] was 4.9 µM, the GI50 [38] was 3.31 µM and the GI50 [39] was 3.31 µM. The GI50 [40] was 3.98 µM, the GI50 [41] was 7.24 µM and the GI50 [42] was 3.09 µM. The GI50 [43] was 3.47 µM, the GI50 [44] was 8.71 µM and the GI50 [45] was 7.94 µM. It also gave a GI50 [46] of 4.17 µM, a GI50 [47] of 5.5 µM and a GI50 [48] of 4.17 µM. The GI50 [49] was 3.24 µM, the GI50 [50] was 0.537 µM and the GI50 [51] was 11 µM. The GI50 [52] was 13.2 µM, the GI50 [53] was 3.39 µM and the GI50 [54] was 16.6 µM. For the same compound, the GI50 [55] was 6.61 µM, the GI50 [56] was 9.12 µM and the GI50 [57] was 2.63 µM. It also gave a GI50 [58] of 7.24 µM, a GI50 [59] of 13.2 µM and a GI50 [60] of 7.08 µM. For the same compound, the GI50 [61] was 2.75 µM, the GI50 [62] was 4.47 µM and the GI50 [63] was 6.03 µM. For the same compound, the GI50 [64] was 5.01 µM and the GI50 [65] was 5.89 µM.

Source: ChEMBL document CHEMBL3352299, “Antiproliferative 4-(1,2,4-oxadiazol-5-yl)piperidine-1-carboxamides, a new tubulin inhibitor chemotype” (Bioorg Med Chem Lett, 2014)
